Measurements published in ChEMBL document CHEMBL3885861, “Open TG-GATES”.

Species on record: Rattus norvegicus
Assay: Open TG-GATES - Regimen: Daily Repeat
Assay type: toxicity, organism-based, Sprague-Dawley
Design: regimen Daily Repeat, gender Male, age 6 weeks
Settings: in vivo, po, route gavage; for Eos / Fbg / Hb / Ht / Lym / MCHC / MCV / Mono / Neu / PT / Plat / RBC / Ret / WBC / Bas: tissue Blood; for ALP / AST / BUN / CRE / Ca / Cl / DBIL / GLC / IP / K / LDH / Na / PL / RALB / TBIL / TC / TG / TP / gamma-GTP / ALT: tissue Plasma
[1] = 300 mg/kg, 72 h, dose level Middle, time 3 day
[2] = 300 mg/kg, […], dose level Middle, time 7 day
[3] = 300 mg/kg, […], dose level Middle, time 14 day
[4] = 300 mg/kg, […], dose level Middle, time 28 day
[5] = 1000 mg/kg, 72 h, dose level High, time 3 day
[6] = 1000 mg/kg, […], dose level High, time 7 day
[7] = 1000 mg/kg, […], dose level High, time 14 day
[8] = 1000 mg/kg, […], dose level High, time 28 day

Structure (SMILES): O=C(O)c1cccnc1 [NIACIN]
- Eos [1]: 1%
- Fbg [1]: 314.2 mg/dL
- Hb [1]: 13.3 g/dL
- Ht [1]: 40.2%
- Lym [1]: 75.2%
- MCHC [1]: 33%
- MCV [1]: 63.4 fL
- Mono [1]: 3.6%
- Neu [1]: 19%
- PT [1]: 16 s
- Plat [1]: 132.1 x10_4/uL
- RBC [1]: 635.6 x10_4/ul
- Ret [1]: 7.2%
- WBC [1]: 106.7 x10_2/uL
- ALP [1]: 1606.8 IU/L
- AST [1]: 74.6 IU/L
- BUN [1]: 16.4 mg/dL
- CRE [1]: 0.2 mg/dL
- Ca [1]: 10.8 mg/dL
- Cl [1]: 104 meq/L
- DBIL [1]: 0 mg/dL
- GLC [1]: 191.6 mg/dL
- IP [1]: 8.2 mg/dL
- K [1]: 4.1 meq/L
- LDH [1]: 165.8 IU/L
- Na [1]: 139.6 meq/L
- PL [1]: 152.8 mg/dL
- RALB [1]: 3 g/dL
- TBIL [1]: 0 mg/dL
- TC [1]: 73.2 mg/dL
- TG [1]: 136.2 mg/dL
- TP [1]: 5.6 g/dL
- gamma-GTP [1]: 1.2 IU/L
- TERMINAL_BW [2]: 273.2 g
- TERMINAL_BW [3]: 321.5 g
- TERMINAL_BW [4]: 396.3 g
- Bas [2]: 0%
- Eos [2]: 1%
- Fbg [2]: 325.8 mg/dL
- Hb [2]: 13.8 g/dL
- Ht [2]: 41.4%
- Lym [2]: 75%
- MCHC [2]: 33.4%
- MCV [2]: 63.5 fL
- Mono [2]: 3.4%
- Neu [2]: 19.2%
- PT [2]: 15.6 s
- Plat [2]: 112.8 x10_4/uL
- RBC [2]: 652.2 x10_4/ul
- Ret [2]: 6%
- WBC [2]: 104.1 x10_2/uL
- Bas [3]: 0%
- Eos [3]: 0.6%
- Fbg [3]: 325.2 mg/dL
- Ht [3]: 42.2%
- Lym [3]: 72.6%
- MCHC [3]: 33.7%
- MCV [3]: 59.8 fL
- Mono [3]: 3.4%
- Neu [3]: 21.8%
- PT [3]: 15.5 s
- Plat [3]: 109.4 x10_4/uL
- RBC [3]: 705.8 x10_4/ul
- Ret [3]: 4.7%
- WBC [3]: 119.8 x10_2/uL
- Bas [4]: 0%
- Eos [4]: 1.2%
- Fbg [4]: 336.6 mg/dL
- Hb [4]: 15 g/dL
- Ht [4]: 42.6%
- Lym [4]: 74.8%
- MCHC [4]: 35.3%
- MCV [4]: 56 fL
- Mono [4]: 2.8%
- PT [4]: 16.1 s
- Plat [4]: 100.4 x10_4/uL
- RBC [4]: 761.2 x10_4/ul
- Ret [4]: 2.6%
- WBC [4]: 105.7 x10_2/uL
- ALP [2]: 1661 IU/L
- ALT [2]: 47.8 IU/L
- AST [2]: 76 IU/L
- BUN [2]: 17.6 mg/dL
- CRE [2]: 0.1 mg/dL
- Ca [2]: 10.7 mg/dL
- Cl [2]: 105 meq/L
- DBIL [2]: 0 mg/dL
- GLC [2]: 189 mg/dL
- IP [2]: 7.4 mg/dL
- K [2]: 4.3 meq/L
- LDH [2]: 138.4 IU/L
- Na [2]: 139.8 meq/L
- PL [2]: 161.8 mg/dL
- RALB [2]: 2.9 g/dL
- TBIL [2]: 0 mg/dL
- TC [2]: 79.6 mg/dL
- TG [2]: 135.8 mg/dL
- TP [2]: 5.5 g/dL
- gamma-GTP [2]: 1.4 IU/L
- ALP [3]: 1495.2 IU/L
- ALT [3]: 39.6 IU/L
- AST [3]: 68.8 IU/L
- CRE [3]: 0.2 mg/dL
- Ca [3]: 10.7 mg/dL
- Cl [3]: 104.4 meq/L
- DBIL [3]: 0 mg/dL
- GLC [3]: 201 mg/dL
- IP [3]: 6.8 mg/dL
- K [3]: 3.9 meq/L
- LDH [3]: 166.4 IU/L
- Na [3]: 137.6 meq/L
- PL [3]: 162.6 mg/dL
- RALB [3]: 3.1 g/dL
- TBIL [3]: 0.006 mg/dL
- TC [3]: 77.6 mg/dL
- TG [3]: 156 mg/dL
- TP [3]: 5.8 g/dL
- gamma-GTP [3]: 1.8 IU/L
- ALP [4]: 1059.8 IU/L
- ALT [4]: 41.4 IU/L
- AST [4]: 71.2 IU/L
- BUN [4]: 16 mg/dL
- CRE [4]: 0.2 mg/dL
- Ca [4]: 10.4 mg/dL
- Cl [4]: 107 meq/L
- DBIL [4]: 0 mg/dL
- GLC [4]: 193.6 mg/dL
- IP [4]: 6.3 mg/dL
- K [4]: 4.4 meq/L
- LDH [4]: 149.2 IU/L
- Na [4]: 143 meq/L
- PL [4]: 140.4 mg/dL
- RALB [4]: 3 g/dL
- TBIL [4]: 0.008 mg/dL
- TC [4]: 69.4 mg/dL
- TG [4]: 126.6 mg/dL
- TP [4]: 6.1 g/dL
- gamma-GTP [4]: 2.8 IU/L
- TERMINAL_BW [5]: 239.5 g
- Bas [5]: 0%
- Eos [5]: 0.8%
- Fbg [5]: 319.4 mg/dL
- Hb [5]: 13.5 g/dL
- Ht [5]: 40.1%
- Lym [5]: 73.6%
- MCHC [5]: 33.5%
- MCV [5]: 62.3 fL
- Mono [5]: 3.8%
- Plat [5]: 119.3 x10_4/uL
- RBC [5]: 645 x10_4/ul
- Ret [5]: 5.7%
- WBC [5]: 116 x10_2/uL
- ALP [5]: 1534.6 IU/L
- ALT [5]: 48.8 IU/L
- AST [5]: 77.8 IU/L
- BUN [5]: 17.2 mg/dL
- CRE [5]: 0.2 mg/dL
- Ca [5]: 10.9 mg/dL
- Cl [5]: 104.2 meq/L
- DBIL [5]: 0 mg/dL
- GLC [5]: 187.6 mg/dL
- IP [5]: 8.5 mg/dL
- K [5]: 4.1 meq/L
- LDH [5]: 176.6 IU/L
- Na [5]: 139.4 meq/L
- PL [5]: 148.8 mg/dL
- RALB [5]: 3.1 g/dL
- TBIL [5]: 0 mg/dL
- TC [5]: 73.4 mg/dL
- TG [5]: 97.6 mg/dL
- TP [5]: 5.6 g/dL
- gamma-GTP [5]: 1.2 IU/L
- TERMINAL_BW [6]: 270 g
- TERMINAL_BW [7]: 315.4 g
- TERMINAL_BW [8]: 425.7 g
- Bas [6]: 0%
- Eos [6]: 0.8%
- Fbg [6]: 325.4 mg/dL
- Hb [6]: 13.6 g/dL
- Ht [6]: 40.6%
- Lym [6]: 77.2%
- MCHC [6]: 33.5%
- MCV [6]: 61.6 fL
- Mono [6]: 3.4%
- Neu [6]: 16.8%
- PT [6]: 16 s
- Plat [6]: 107.2 x10_4/uL
- RBC [6]: 659.8 x10_4/ul
- Ret [6]: 6.7%
- WBC [6]: 127.7 x10_2/uL
- Bas [7]: 0%
- Eos [7]: 0.6%
- Fbg [7]: 295.4 mg/dL
- Hb [7]: 13.9 g/dL
- Ht [7]: 41.5%
- Lym [7]: 75.2%
- MCHC [7]: 33.6%
- Mono [7]: 2.4%
- Neu [7]: 19.8%
- PT [7]: 15.2 s
- Plat [7]: 114.8 x10_4/uL
- RBC [7]: 684.2 x10_4/ul
- Ret [7]: 4.6%
- WBC [7]: 131.3 x10_2/uL
- Bas [8]: 0%
- Eos [8]: 1%
- Fbg [8]: 310.8 mg/dL
- Hb [8]: 14.8 g/dL
- Ht [8]: 42.1%
- Lym [8]: 75.6%
- MCHC [8]: 35.2%
- MCV [8]: 56.4 fL
- Mono [8]: 3.6%
- Neu [8]: 18.2%
- PT [8]: 15.8 s
- Plat [8]: 88.1 x10_4/uL
- RBC [8]: 747.2 x10_4/ul
- Ret [8]: 2.7%
- WBC [8]: 127.6 x10_2/uL
- ALP [6]: 1693.6 IU/L
- ALT [6]: 45.6 IU/L
- AST [6]: 77.6 IU/L
- BUN [6]: 15.8 mg/dL
- CRE [6]: 0.2 mg/dL
- Ca [6]: 10.6 mg/dL
- Cl [6]: 104.8 meq/L
- DBIL [6]: 0 mg/dL
- GLC [6]: 196.6 mg/dL
- IP [6]: 7.5 mg/dL
- K [6]: 4.5 meq/L
- LDH [6]: 137.2 IU/L
- Na [6]: 139 meq/L
- PL [6]: 142.4 mg/dL
- RALB [6]: 3 g/dL
- TBIL [6]: 0.004 mg/dL
- TC [6]: 69.2 mg/dL
- TG [6]: 107 mg/dL
- TP [6]: 5.6 g/dL
- gamma-GTP [6]: 1.8 IU/L
- ALP [7]: 1458 IU/L
- ALT [7]: 44.8 IU/L
- AST [7]: 86.8 IU/L
- BUN [7]: 17.2 mg/dL
- CRE [7]: 0.2 mg/dL
- Ca [7]: 10.5 mg/dL
- Cl [7]: 105.2 meq/L
- DBIL [7]: 0 mg/dL
- GLC [7]: 195.6 mg/dL
- IP [7]: 7 mg/dL
- K [7]: 4.1 meq/L
- LDH [7]: 140.8 IU/L
- Na [7]: 138.8 meq/L
- PL [7]: 150.8 mg/dL
- RALB [7]: 3.1 g/dL
- TBIL [7]: 0.012 mg/dL
- TC [7]: 67.2 mg/dL
- TG [7]: 163.6 mg/dL
- TP [7]: 5.7 g/dL
- gamma-GTP [7]: 1.8 IU/L
- ALP [8]: 1046.8 IU/L
- ALT [8]: 47 IU/L
- AST [8]: 80.8 IU/L
- BUN [8]: 17.8 mg/dL
- CRE [8]: 0.2 mg/dL
- Ca [8]: 10.5 mg/dL
- Cl [8]: 104 meq/L
- DBIL [8]: 0 mg/dL
- GLC [8]: 196.6 mg/dL
- IP [8]: 7.1 mg/dL
- K [8]: 4.2 meq/L
- LDH [8]: 157.4 IU/L
- Na [8]: 143.4 meq/L
- PL [8]: 152 mg/dL
- RALB [8]: 3 g/dL
- TBIL [8]: 0.01 mg/dL
- TC [8]: 68.4 mg/dL
- TG [8]: 184 mg/dL
- TP [8]: 5.8 g/dL
- gamma-GTP [8]: 2.4 IU/L
